The target of one series is D2 (Homo sapiens, UniProt P14416). To be noted: literature value; cited from earlier work.
Series [1] deals with T1, 5-HT1A (Homo sapiens, UniProt P08908).
T1 sequence (P08908 1-422): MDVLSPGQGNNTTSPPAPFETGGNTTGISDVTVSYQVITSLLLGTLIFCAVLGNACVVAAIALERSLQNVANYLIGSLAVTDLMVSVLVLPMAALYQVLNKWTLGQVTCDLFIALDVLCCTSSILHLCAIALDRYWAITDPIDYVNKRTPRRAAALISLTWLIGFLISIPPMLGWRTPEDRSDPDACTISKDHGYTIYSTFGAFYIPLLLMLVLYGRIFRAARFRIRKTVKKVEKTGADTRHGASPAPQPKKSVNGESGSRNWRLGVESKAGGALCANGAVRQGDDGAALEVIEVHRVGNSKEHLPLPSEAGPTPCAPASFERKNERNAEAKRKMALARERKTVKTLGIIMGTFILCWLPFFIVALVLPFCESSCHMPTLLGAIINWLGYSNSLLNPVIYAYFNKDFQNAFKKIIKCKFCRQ
Particulars: literature value; cited from earlier work.

Another series has as its target D3 (Homo sapiens, UniProt P35462). To be noted: literature value; cited from earlier work.
A further series addresses hERG potassium channel (Homo sapiens, UniProt Q12809). In words: In vitro hERG experiment (whole-cell patch clamp). It counts as cell-based. To be noted: for IC50: whole-cell patch clamp, tail current, room temperature. How it is done:
Extracellular fluid: 140 mM NaCl, 3.5 mM KCl, 1 mM MgCl2, 2 mM CaCl2, 10 mM Glucose, 10 mM HEPES, and 1.25 mM NaH2PO4, with the pH adjusted to 7.4 by NaOH.
Under an inverted microscope, recording electrodes were controlled by a glass electrode micromanipulator (micromanipulation) to contact with the cell. A negative voltage was applied to form a GΩ seal. After forming the GΩ seal, a rapid capacitance compensation was given. Under the continuous negative voltage, the cell membrane was ruptured to establish a whole-cell recording mode. In the whole-cell recording mode, a slow capacitance compensation was given, and the values of membrane capacitance and series resistance were recorded.
Voltage stimulation scheme for cellular hERG potassium current: the cell membrane clamping voltage was -80 mV; the voltage was first elevated from -80 mV to +30 mV, held for 2.5 s, and rapidly changed to and held at -50 mV for 4 s, thus exciting the hERG channel tail current. Data were acquired every 10 s. Leak current detection was performed at -50 mV.
The coverslip with seeded cells was placed in the recording chamber of the inverted microscope. Negative control and test compounds flowed through the recording chamber in an ascending order of concentration by gravity perfusion to quickly act on the cells. During the recording, the extracellular fluid was continuously circulated by a vacuum pump. The current detected in a cell in the negative control was used as the background for the cell. Each compound concentration was allowed to act for 5 min or until the current was stabilized. All experiments were performed at room temperature.
The current of each compound concentration was first normalized according to (peak tail current compound)/(peak tail current vehicle), and then the corresponding inhibition rate was calculated according to (1 - (peak tail current compound)/(peak tail current vehicle)). Basic statistics were calculated for each concentration, including mean, standard deviation (SD), standard error (SE), and replicates (n). […] Curve fitting and calculation of IC50 were performed by GraphPad Prism 5.0 software.
Background: hERG is a cardiac potassium channel; its block is linked to QT prolongation.

In another series the target is Dopamine D2L receptor (Homo sapiens, UniProt P14416). As to the kind of experiment: In vitro dopamine D2L receptor function experiment (cAMP, forskolin-stimulated HEK293/D2L cells). To be noted: for Emax: HEK293, read-out: D2L Emax.
Dopamine D2L receptor, sequence (P14416 whole entry): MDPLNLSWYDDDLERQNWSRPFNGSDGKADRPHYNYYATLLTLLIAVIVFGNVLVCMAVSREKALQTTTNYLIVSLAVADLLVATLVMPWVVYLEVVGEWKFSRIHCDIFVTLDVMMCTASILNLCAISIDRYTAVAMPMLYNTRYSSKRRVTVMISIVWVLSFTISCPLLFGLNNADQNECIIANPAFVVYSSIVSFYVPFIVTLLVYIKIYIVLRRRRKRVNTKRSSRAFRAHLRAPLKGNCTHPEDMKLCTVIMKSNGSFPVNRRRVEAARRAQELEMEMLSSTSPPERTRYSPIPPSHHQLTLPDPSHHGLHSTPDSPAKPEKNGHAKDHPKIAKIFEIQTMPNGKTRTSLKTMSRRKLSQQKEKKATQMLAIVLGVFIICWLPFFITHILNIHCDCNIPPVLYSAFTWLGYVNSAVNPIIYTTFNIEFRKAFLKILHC
The target of series [2] is T1, 5-HT1A. In words: In vitro 5HT1A receptor function experiment (cAMP, forskolin-stimulated HEK293/5HT1A cells). The format is cell-based. On the set-up: expressed in transfected cells; host or cells: HEK293. To be noted: for EC50: forskolin 1 µM; for Emax: maximum activation rate. On the procedure:
1.1.1 Cell information: HEK293/5HT1A: a stably transfected cell strain HEK293/5HT1A constructed by adopting 5HT1A receptor lentivirus to infect HEK293; growth culture medium: DMEM, 10% FBS, and 0.6 µg/mL puro; and cryopreservation culture medium: 70% culture medium, 20% FBS, and 10% DMSO.

A further series deals with T2, Dopamine D3 receptor (Homo sapiens, UniProt P35462).
T2 construct: expressed in transfected cells; host or cells: CHO-K1
T2 sequence (P35462 whole entry, species assumed): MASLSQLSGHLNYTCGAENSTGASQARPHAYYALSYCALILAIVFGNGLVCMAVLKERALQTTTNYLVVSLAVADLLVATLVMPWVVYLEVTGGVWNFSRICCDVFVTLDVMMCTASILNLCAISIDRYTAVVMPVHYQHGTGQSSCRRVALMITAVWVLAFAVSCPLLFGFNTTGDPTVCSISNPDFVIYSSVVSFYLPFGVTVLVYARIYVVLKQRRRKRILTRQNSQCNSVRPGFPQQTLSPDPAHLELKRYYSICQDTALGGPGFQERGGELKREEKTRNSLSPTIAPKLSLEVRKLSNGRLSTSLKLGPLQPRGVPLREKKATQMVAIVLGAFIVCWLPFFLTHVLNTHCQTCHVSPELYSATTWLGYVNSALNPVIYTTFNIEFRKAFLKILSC
In words: In vitro dopamine D3 receptor function experiment (CHO-K1/D3/CRE reporter, chemiluminescence). It counts as cell-based. On the procedure:
3.1.1 Cell information: CHO-K1/D3/CRE constructed by referring to the method in Example 5 of CN114369578A.
The first day: cell plating • (1) The cultured cells were digested with trypsin, and after the digestion was terminated with culture medium, the cell suspension was transferred to a centrifuge tube and centrifuged at 750 rpm for 5 min. • (2) The supernatant was discarded, and the pellet was resuspended in an appropriate amount of plating medium.
The following day: experimental detection • (1) The test compounds were diluted to 0.2 mM with DMSO, and the reference compound dopamine was diluted to 0.02 mM. • (2) Compound dilution (4-fold dilution at 8 concentration points) was performed using Bravo, with the starting concentrations of the test compounds and the reference compound being 5 µM and 500 nM, respectively. […] The program selected was an ultrasensitive chemiluminescence detection program.

The test system of series [3] is tacrine-induced jaw tremors in rats. As to the kind of experiment: Tacrine-induced jaw tremor behavior in rats. It counts as in vivo, Sprague Dawley rats. On the procedure:
Test compounds: The free bases of Examples 28, 32, and 33 in the present invention, which were self-prepared.
Positive control compound: Rotigotine.
Molding drug: Tacrine, SIGMA, A3773-1G.
Vehicle: Normal saline, Cisen Pharmaceutical Co., Ltd., 2111060723.
Sprague Dawley rats, male, 10/group, Shanghai Slac Laboratory Animal Co., Ltd.
Drug preparation: The test compound was taken, added to the vehicle, and subjected to ultrasonication.
Administration route and method: Administration was performed by intraperitoneal injection.
Administration frequency and duration: single administration.
The rats were stratified according to body weight and then randomly divided into a model group, an administration group, and a control group. The rats were acclimatized for three days before the experiment. On the day of the experiment, the vehicle or drug was first injected intraperitoneally, followed by an intraperitoneal injection of tacrine at a dose of 5 mg/kg (body weight) after 60 min. After administration, the rats were placed in a transparent observation box, and the jaw tremor counting was started 10 min later. The continuous counting duration was 5 min, and the jaw tremor frequency in the rats within 5 min was recorded.
The experimental data were expressed as x ± SEM. Inhibition rate (%) = 100% × (jaw tremor frequency in the rats of the model group - jaw tremor frequency in the rats of the administration group)/jaw tremor frequency in the rats of the model group, where *: p < 0.05, **: p < 0.01, and ***: p < 0.001 vs vehicle.

Series [4] can be described thus: In vitro liver microsome stability, SD rat. (Liver microsomes are a subcellular fraction often used to study metabolism.)
Procedure: (§1) • (1) Buffer preparation: 73.21 g of dipotassium hydrogen phosphate trihydrate and 10.78 g of potassium dihydrogen phosphate were dissolved in 4000 mL of ultrapure water. The pH of the solution was adjusted to within 7.40 ± 0.10 using 10% phosphoric acid or 1 M potassium hydroxide, resulting in a final concentration of 100 mM. • (2) Solution preparation and dilution: Stock solutions of the test compounds at a concentration of 10 mM were prepared in dimethyl sulfoxide (DMSO) and stored at 4 °C, and they were diluted into 100 µM working solutions with pure acetonitrile when used. A stock solution of the control compound testosterone at a concentration of 10 mM was prepared in DMSO and stored at -20 °C, and it was diluted into a 400 µM working solution with pure acetonitrile when used. • (3) Termination solution preparation: The termination solution was acetonitrile containing the internal standard buspirone. The prepared termination solution was stored in a refrigerator at 2-8 °C. • (4) Liver microsome solution preparation: Microsomes from various species (CD-1 mouse, SD rat, and human) were diluted into a 20× working solution using 100 mM potassium phosphate buffer. The final concentration of the microsomes in the reaction system was 0.5 mg/mL. • (5) Reduced nicotinamide adenine dinucleotide phosphate (NADPH) regeneration system preparation: Appropriate amounts of nicotinamide adenine dinucleotide phosphate (NADP), glucose-6-phosphate (G6P), magnesium chloride (MgCl2), and glucose-6-phosphate dehydrogenase (G6PDH) were weighed to prepare stock solutions at concentrations of 65.33 mM, 330 mM, 300 mM, and 250 Units/mL, respectively. The four stock solutions described above were each added to an appropriate amount of buffer, and the mixture was mixed well by gently inverting up and down. […] Several incubation plates were prepared and named T0, T5, T10, T20, T40, T60, PB60, and NCF60, respectively. […] The NCF60 plate was incubated for 60 min with potassium phosphate buffer replacing the NADPH regeneration system solution. The PB60 plate was incubated for 60 min with potassium phosphate buffer replacing the liver microsomes. Samples under all conditions were prepared in triplicate.
(§2) 2 µL of the test compound or control compound and 100 µL of microsome working solution (containing 1 mg/mL liver microsome protein) were added to each of the T0, T5, T10, T20, T40, T60, and NCF60 plates, and 2 µL of the test compound and 100 µL of potassium phosphate buffer were added to the PB60 plate. The plates described above were then pre-incubated in a 37 °C water bath for about 5 min.
(§3) After the pre-incubation, 600 µL of the termination solution was first added to the T0 samples, followed by the addition of 98 µL of NADPH regeneration system working solution. The plate was sealed, shaken, and then allowed to wait for simultaneous processing with subsequent samples. Except for the NCF60 plate where 98 µL of potassium phosphate buffer was added to each sample well, 98 µL of NADPH regeneration system working solution was added to each sample well of the other incubation plates to initiate the reaction. In the reaction system, the final concentrations of the test compound and the control compound were 1 µM and 4 µM, respectively, the concentration of the liver microsomes was 0.5 mg/mL, and the final concentrations of DMSO and acetonitrile were 0.01% (v/v) and 0.99% (v/v), respectively.
(§4) After incubation for an appropriate time (such as 5, 10, 20, 40, and 60 min), 600 µL of the termination solution containing the internal standard was added to each test compound sample and control compound well to terminate the reaction. The plates were sealed, shaken well, and then centrifuged at 4000 ×g and 4 °C for 15 min.
Series [5] in a line: In vitro liver microsome stability, CD-1 mouse.
Procedure: as §1, §2, §3, §4
A short description of series [6]: In vitro liver microsome stability, human.
Procedure: as §1, §2, §3, §4
The next series has as its system 5HT1A/1B. Particulars: 5HT1A/1B agonist, literature value; cited from earlier work.
[7] abbreviates: SD, rat, liver microsomes, pH 7.4.
Where [8] appears, read: CD-1, mouse, liver microsomes, pH 7.4.
Where [9] appears, read: human, liver microsomes, pH 7.4.

Several values for one entry are separate records, joined by “and”; a condition that tells them apart may be missing. Identical values can stand only once. Counter-ions that a name gives are not always drawn. Like-named read-outs stand apart in the source and are kept apart here. Bounds are passed on as bounds.

hERG potassium channel, sequence (Q12809 whole entry): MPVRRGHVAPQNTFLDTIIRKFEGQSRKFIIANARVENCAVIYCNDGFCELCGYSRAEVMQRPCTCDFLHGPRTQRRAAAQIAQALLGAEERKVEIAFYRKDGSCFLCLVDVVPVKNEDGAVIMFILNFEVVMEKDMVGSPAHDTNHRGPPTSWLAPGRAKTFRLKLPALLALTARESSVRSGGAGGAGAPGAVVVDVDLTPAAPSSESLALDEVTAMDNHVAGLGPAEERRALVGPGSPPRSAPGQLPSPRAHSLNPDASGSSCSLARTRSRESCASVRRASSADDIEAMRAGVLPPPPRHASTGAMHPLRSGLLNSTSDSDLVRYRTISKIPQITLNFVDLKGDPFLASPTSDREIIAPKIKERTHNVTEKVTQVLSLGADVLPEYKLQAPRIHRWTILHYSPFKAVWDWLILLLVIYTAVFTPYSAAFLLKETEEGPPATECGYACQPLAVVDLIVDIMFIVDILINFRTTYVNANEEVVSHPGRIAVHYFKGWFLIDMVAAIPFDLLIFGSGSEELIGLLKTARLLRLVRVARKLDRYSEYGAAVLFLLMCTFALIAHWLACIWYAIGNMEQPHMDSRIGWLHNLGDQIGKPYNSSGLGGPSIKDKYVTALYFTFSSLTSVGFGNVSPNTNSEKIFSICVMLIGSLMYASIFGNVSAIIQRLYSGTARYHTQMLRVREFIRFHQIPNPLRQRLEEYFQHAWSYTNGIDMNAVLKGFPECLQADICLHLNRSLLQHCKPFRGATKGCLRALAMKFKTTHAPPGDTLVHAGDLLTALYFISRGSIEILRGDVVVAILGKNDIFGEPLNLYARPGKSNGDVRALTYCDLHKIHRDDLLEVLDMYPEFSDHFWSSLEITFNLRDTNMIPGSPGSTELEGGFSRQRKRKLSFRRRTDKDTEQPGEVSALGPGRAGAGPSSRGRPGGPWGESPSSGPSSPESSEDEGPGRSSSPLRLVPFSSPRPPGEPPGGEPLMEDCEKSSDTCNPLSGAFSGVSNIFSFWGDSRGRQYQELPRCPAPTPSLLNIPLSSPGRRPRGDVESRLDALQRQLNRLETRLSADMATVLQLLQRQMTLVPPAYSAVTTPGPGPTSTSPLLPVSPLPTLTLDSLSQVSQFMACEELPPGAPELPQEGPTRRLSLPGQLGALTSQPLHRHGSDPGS
D3, sequence (P35462 whole entry): as the sequence (P35462 whole entry, species assumed) above
D2, sequence (P14416 whole entry): as the sequence (P14416 whole entry) above
Procedure for Dopamine D2L receptor: • (1) Compound preparation: The test compounds and dopamine were diluted to a concentration of 200 nM for later use. • (2) Experimental buffer preparation: The 5× stimulation buffer was diluted to 1× with ddH2O, and IBMX was added to a final concentration of 0.5 mM. The mixture was mixed well for later use. • (3) The cells were digested with trypsin, and centrifugation was performed after the digestion was terminated. The cell pellet was resuspended in 10 mL of pre-warmed HBSS and centrifuged again. Then, 1 mL of stimulation buffer was added for resuspension, and 20 µL of the cell suspension was taken for cell counting. • (4) An appropriate amount of the cell suspension was taken and diluted to 0.4 × 10^6 cells/mL, and 5 µL of the diluted cell suspension was added to each well of a cell plate and centrifuged at 1000 rpm for 1 min. • (5) Compound dilution and transfer using bravo: The compounds were diluted 4-fold to obtain 8 concentration points in the compound plate. The diluted compounds in the whole plate were then transferred to a 384-well white plate using bravo and centrifuged at 1000 rpm for 1 min. • (6) The experimental plate was sealed and incubated at room temperature for 15 min. • (7) Forskolin, prepared with DMSO, was added at 25.1 nL/well using Tecan D300e, with a mother liquor concentration of 0.2 mM and a final concentration of 0.25 µM, followed by centrifugation at 1000 rpm for 1 min. • (8) The plate was sealed and incubated at room temperature for 45 min. • (9) cAMP standard curve preparation: A 4-fold serial dilution was performed to obtain 8 concentration points from a starting concentration of 2848 nM. Then, 10 µL of each dilution was taken and added to the experimental plate, with a maximum concentration of 712 nM. • (10) 5 µL of cAMP-d2 solution (stock solution diluted at 1:20 with lysis buffer) was added to the experimental plate, and the plate was centrifuged at 1000 rpm for 1 min. • (11) Then, 5 µL of Anti-cAMP-Cryptate solution (stock solution diluted at 1:20 with lysis buffer) was added to the experimental plate, and the plate was centrifuged at 1000 rpm for 1 min. • (12) The experimental plate was incubated at room temperature for 45 min and centrifuged at 1000 rpm for 1 min before reading. • (13) Plate reading was performed using Envision, with excitation light at 320 nm and emission lights at 620 nm and 665 nm. The derived data were analyzed, and the maximum activation rates Emax and EC50 of the compounds were calculated.

On to `O=c1[nH]c2cccc(N3CCN(Cc4cccc(-c5ccccc5)c4)CC3)c2o1` [Bifeprunox], for which the EC50 (usually the concentration giving half of the maximal effect) was 39.8 nM at D2 and 47.8 nM at 5-HT1A [1]. In addition, on D3, the IC50 – broadly, the concentration needed to halve the response being measured – was 15.2 nM.

`CCCN(CC1CCN(C(=O)OC)CC1)[C@@H]1CCc2nc(N)sc2C1` (stereo in doubt) [Comparative Example 3, Methyl (R)-4-(((2-amino-4,5,6,7-tetrahydrobenzo[d]thiazol-6-yl)(propyl)amino)methyl)piperidine-1-carboxylate hydrochloride, reference compound] yielded an IC50 at hERG potassium channel of 5100 nM. The EC50 on Dopamine D2L receptor amounted to 0.95 nM; at 5-HT1A [2], 203 nM. Besides, the maximal response (Emax) (usually the size of the effect at its maximum, as opposed to the concentration needed) was 112% at Dopamine D2L receptor and 97% at 5-HT1A [2].

For `CCCN(CCN1CCN(c2cccc(Cl)c2Cl)CC1)[C@H]1CCc2nc(N)sc2C1` [Comparative Example 1, (S)-N^6-(2-(4-(2,3-Dichlorophenyl)piperazin-1-yl)ethyl)-N^6-propyl-4,5,6,7-tetrahydrobenzo[d]thiazole-2,6-diamine hydrochloride, reference compound], on Dopamine D2L receptor, the EC50 is 0.25 nM and the Emax amounted to 101%. At 5-HT1A [2], this molecule returned a half-maximal effective concentration (EC50) of 203 nM and an Emax of 99.1%.

In the case of `CCCN(CC1CCN(C(=O)N(C)C)CC1)[C@H]1CCc2nc(N)sc2C1` [Example 32, (S)-4-(((2-Amino-4,5,6,7-tetrahydrobenzo[d]thiazol-6-yl)(propyl)amino)methyl)-N,N-dimethylpiperidine-1-carboxamide], the “hERG inhibition: functional activity lower than that of the pharmacodynamic target” value on hERG potassium channel (hERG IC50 versus activity at pharmacodynamic target) is at least 1000 fold. Also, the IC50 at hERG potassium channel was 20000 nM and 17800 nM. Moreover, the EC50 on Dopamine D3 receptor (forskolin 0.4 µM) came to 1.3 nM; on 5-HT1A [2] it was 25.7 nM. The Emax on Dopamine D3 receptor (maximum activation rate) came to 120%; on 5-HT1A [2], 102%. For the same molecule, the “Inhibition of tacrine-induced jaw tremors in rats” value in series [3] (1 mg/kg, 3 mg/kg, and 10 mg/kg, intraperitoneal, single administration, free base, compared to the model group) is “significantly inhibited”. In addition, in [3] (tacrine-induced jaw tremor in rats, compared with rotigotine), the Minimum effective dose result is given as “lower than that of the positive control drug”. Moreover, the “CLint(liver)” value in series [4] (SD rat liver microsomes) worked out at 38.5 mL/min/K g; in series [5] (CD-1 mouse liver microsomes), 45.5 mL/min/K g; in [6] (Human liver microsomes), 10.3 mL/min/K g. The CLint scaled (usually the rate of metabolic loss divided by the concentration) at 1 µM in series [4] (setting [7]) lay in the range of 23.7 to 129 mL/min/kg; in [5] (setting [8]), 38.6 to 210 mL/min/kg; in series [6] (setting [9]) it was 8.9 to 48.3 mL/min/kg. Besides, the half-life – broadly, the time in which the quantity being followed falls by half – at 1 µM in [4] (setting [7]) amounted to 1.08 h. The results for the microsomal CLint at 1 µM in series [4] (setting [7]), in series [5] (setting [8]) and in [6] (setting [9]) were 21.4 µL/min/mg, 11.5 µL/min/mg and 11.5 µL/min/mg, respectively.

Turning to `c1cc2c(c(N3CCNCC3)c1)OCCO2` [Eltoprazine], in the series on 5HT1A/1B, the EC50 is 148 nM.

Take `CCCN(CC1CCN(C(=O)OC)CC1)C1CCc2nc(N)sc2C1` (stereo not shown) [Comparative Example 2, Methyl 4-(((2-amino-4,5,6,7-tetrahydrobenzo[d]thiazol-6-yl)(propyl)amino)methyl)piperidine-1-carboxylate hydrochloride, reference compound]: at hERG potassium channel, the IC50 came to 4700 nM. Moreover, on Dopamine D2L receptor, the response was half-maximal at 1.68 nM (EC50) and the Emax came to 112%. In addition, at 5-HT1A [2], a half-maximal response (EC50) required 247 nM and the Emax amounted to 95.4%.

In the case of `Cc1ccc(CNCC2(F)CCN(C(=O)c3ccc(F)c(Cl)c3)CC2)nc1` [NLX-112], the “5-HT1A Emax” value at 5-HT1A [1] is 84%.

For the molecule `CN1CCN(c2cccc3[nH]c(=O)oc23)CC1` [Pardoprunox], the EC50 on D2 was 10 nM; on 5-HT1A [1], 500 nM; on D3 it was 0.6 nM.

These data come from patent publication EP4570798A1, “AROMATIC HETEROCYCLIC CYCLOHEXYL AMINOALKYL PIPERIDINE DERIVATIVE, PREPARATION METHOD AND USE THEREOF” (Jiangsu NHWA Pharmaceutical Co., Ltd, priority 2022, dated 2024).
